Tested on: HCV 1b-377-neo replicon cells
Experiment: HCV replicon assay, HCV 1b-377-neo replicon cells (1b FRET)
Type: cell-based, Hepatitis C virus genotype 1b
Details: HCV 1b-377-neo replicon cells; HCV 1b genotype; read-out: EC50 range against HCV 1b (Table 2, Range)
Summary of the method: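 Compounds tested in HCV genotype 1b-377-neo replicon cells with a FRET read-out. Cells resistant to a reference NS5A inhibitor through a Y2065H NS5A mutation were run alongside wild-type cells.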

With O=C(N[C@@H](C(=O)N1CCC[C@H]1c1ncc(-c2ccc(-c3ccc(-c4cnc([C@@H]5CCCN5C(=O)[C@H](NC(=O)[C@H]5CCCO5)c5ccccc5)[nH]4)cc3)cc2)[nH]1)c1ccccc1)[C@H]1CCCO1 [Example 25-1, (2R,2′R)-N,N′-(4,4′-biphenyldiylbis(1H-imidazole-5,2-diyl(2S)-2,1-pyrrolidinediyl((1R)-2-oxo-1-phenyl-2,1-ethanediyl)))ditetrahydro-2-furancarboxamide] as the compound, how does the EC50 read?
Its EC50 is 0.001 to 0.999 nM.

Same assay, conditions: Hepatitis C virus, HCV 1b-377-neo replicon cells; HCV 1b genotype; read-out: EC50 range against HCV 1b (Table 2, Range)

Which EC50 does the source give for COC(=O)N[C@@H](C)C(=O)N1CCC[C@H]1c1ncc(-c2ccc(-c3ccc(-c4cnc([C@@H]5CCCN5C(=O)[C@H](Cc5cncn5C)NC(=O)OC)[nH]4)cc3)cc2)[nH]1 [cj-45, methyl ((1S)-2-((2S)-2-(5-(4′-(2-((2S)-1-(N-(methoxycarbonyl)-L-alanyl)-2-pyrrolidinyl)-1H-imidazol-5-yl)-4-biphenylyl)-1H-imidazol-2-yl)-1-pyrrolidinyl)-1-((1-methyl-1H-imidazol-5-yl)methyl)-2-oxoethyl)carbamate] here?
Its EC50 is 0.001 to 0.999 nM.

With CN(C)CC[C@H](N)C(=O)N1CCC[C@H]1c1ncc(-c2ccc(-c3ccc(-c4cnc([C@@H]5CCCN5C(=O)[C@@H](N)CCN(C)C)[nH]4)cc3)cc2)[nH]1 [cj-142, (3S,3′S)-4,4′-(4,4′-biphenyldiylbis(1H-imidazole-5,2-diyl(2S)-2,1-pyrrolidinediyl))bis(N~1~,N~1~-dimethyl-4-oxo-1,3-butanediamine)] as the compound, how does the EC50 read?
Its EC50 is 1000 to 10000 nM.

With COC(=O)N[C@@H](C)C(=O)N1CCC[C@H]1c1ncc(-c2ccc(-c3ccc(-c4cnc([C@@H]5CCCN5C(=O)c5ncco5)[nH]4)cc3)cc2)[nH]1 [Example M92, methyl ((1S)-1-methyl-2-((S)-2-(5-(4′-(2-((2S)-1-(1,3-oxazol-2-ylcarbonyl)-2-pyrrolidinyl)-1H-imidazol-5-yl)-4-biphenylyl)-1H-imidazol-2-yl)-1-pyrrolidinyl)-2-oxoethyl)carbamate] as the compound, how does the EC50 read?
Its EC50 is 1000 to 10000 nM.

CCN(CC)[C@@H](COC)C(=O)N1CCC[C@H]1c1ncc(-c2ccc(-c3ccc(-c4cnc([C@@H]5CCCN5C(=O)[C@@H](NC(=O)OC)C(C)C)[nH]4)cc3)cc2)[nH]1 [Example M88, methyl ((1S)-1-(((2S)-2-(5-(4′-(2-((2S)-1-(N,N-diethyl-O-methyl-L-seryl)-2-pyrrolidinyl)-1H-imidazol-5-yl)-4-biphenylyl)-1H-imidazol-2-yl)-1-pyrrolidinyl)carbonyl)-2-methylpropyl)carbamate] was tested. Which EC50 did it give?
Its EC50 is 1 to 99 nM.

For COC(=O)N[C@@H](C)C(=O)N1CCC[C@H]1c1ncc(-c2ccc(-c3ccc(-c4cnc([C@@H]5CCCN5C(=O)[C@@H](c5ccccc5)N(C)C)[nH]4)cc3)cc2)[nH]1 [Example 92, methyl ((1S)-2-((2S)-2-(5-(4′-(2-((2S)-1-((2R)-2-(dimethylamino)-2-phenylacetyl)-2-pyrrolidinyl)-1H-imidazol-5-yl)-4-biphenylyl)-1H-imidazol-2-yl)-1-pyrrolidinyl)-1-methyl-2-oxoethyl)carbamate], which EC50 is on record?
Its EC50 is 0.001 to 0.999 nM.

With COC(=O)N[C@@H](Cc1c[nH]nn1)C(=O)N1CCC[C@H]1c1ncc(-c2ccc(-c3ccc(-c4cnc([C@@H]5CCCN5C(=O)[C@H](Cc5c[nH]nn5)NC(=O)OC)[nH]4)cc3)cc2)[nH]1 [cj-125, methyl ((1S)-2-((2S)-2-(5-(4′-(2-((2S)-1-((2S)-2-((methoxycarbonyl)amino)-3-(1H-1,2,3-triazol-4-yl)propanoyl)-2-pyrrolidinyl)-1H-imidazol-5-yl)-4-biphenylyl)-1H-imidazol-2-yl)-1-pyrrolidinyl)-2-oxo-1-(1H-1,2,3-triazol-4-ylmethyl)ethyl)carbamate] as the compound, how does the EC50 read?
The EC50 was 1 to 99 nM.

Which EC50 does the source give for CCN(CC)[C@@H](C(=O)N1C[C@@H](F)C[C@H]1c1ncc(-c2ccc(-c3ccc(-c4cnc([C@@H]5C[C@H](F)CN5C(=O)[C@H](C)NC(=O)OC)[nH]4)cc3)cc2)[nH]1)c1ccccc1 [JG-14, methyl ((1S)-2-((2S,4S)-2-(5-(4′-(2-((2S,4S)-1-((2R)-2-(diethylamino)-2-phenylacetyl)-4-fluoro-2-pyrrolidinyl)-1H-imidazol-5-yl)-4-biphenylyl)-1H-imidazol-2-yl)-4-fluoro-1-pyrrolidinyl)-1-methyl-2-oxoethyl)carbamate] here?
The EC50 was 0.001 to 0.999 nM.

Reference: patent publication US8574563B2 (Bristol-Myers Squibb Company, priority 2006, dated 2013)
